Data taken from patent US11155576B2, “Synthetic peptides, enzymatic formation of pericellular hydrogels/nanofibrils, and methods of use” (BRANDEIS UNIVERSITY, priority 2014, dated 2021).
“Also recorded” adds a separate entry of the source. Square brackets hold non-standard residues; d marks the D form. Peptide text beside a SMILES is read from it. * marks the point of attachment. ξ: configuration not given here. d(pY) = N[C@H](Cc1ccc(OP(=O)(O)O)cc1)C(=O)O; NBD = O=[N+]([O-])c1ccc(*)c2nonc12; ξ2Nal = NC(Cc1ccc2ccccc2c1)C(=O)O; βAla = NCCC(=O)O

Experiments:
HeLa cells [1] = experiment: Fluorescence imaging of HeLa/HS-5 co-culture, HeLa; assay type: cell-based, human; conditions: co-culture of HeLa and HS-5, 500 μM, 6 and 24 hours
From the text: (§1) FIGS. 17A-C illustrates that phosphatases catalyze self-assembly to form fluorescent nanofibrils with high spatiotemporal resolution. FIG. 17A is an illustration of phosphatase-catalyzed spatiotemporal formation of fluorescent pericellular nanofibrils in co-culture mimicking tumor microenvironment. […] ALP or tyrosine phosphatase (“PTP”) converts D-3a to D-3b, which self-assembles in physiological condition to form fluorescent nanofibrils of D-3b. FIG. 17C contains a pair of fluorescent images showing that the fluorescent nanofibrils of D-3b selectively form on HeLa cells (the cancer cell, identified by arrows) and […] (the stromal cell, indicated by the arrow heads) in the co-culture of HeLa and HS-5. [D-3a]=500 μM, 6 hours (left panel) and 24 hours (right panel) incubation (scale bar=10 μm, the nuclei stained by Hoechst 33342, a DNA dye for live cells).
(§2) Co-culture of cancer cell (i.e., HeLa cells) and stromal cells (i.e., HS-5 cells) mimics the tumor microenvironment (Straussman et al., Nature 487:500-U118 (2012), which is hereby incorporated by reference in its entirety). […] This approach also offers a method for the visualization of live cells that express ectophosphatases.

PC-12 Adh = experiment: Ectophosphatase imaging of live cells, PC-12 Adh; assay type: cell-based, rat; conditions: 500 μM, 24 hour incubation
Experimental: (§3) FIGS. 18A-H show imaging and ectophosphatase quantification of live cells incubated with D3-a. FIGS. 18A-F show confocal microscopy images. […] The scale bar is […]. The images in FIG. 18B show the time course of fluorescence on HeLa cells incubated with D3-a for 30 minutes, 1 hour, 3 hours, and 6 hours, respectively. Nuclei were stained with Hoechst 33342. FIG. 18C is a 3D stacked z-scan image of fluorescence on HeLa cells treated with D-3a for 6 hours. […] Scale bar: 100 μm for FIG. 18B, upper panels and FIG. 18D; 10 μm for FIG. 18B, lower panels, FIG. 18E, and FIG. 18F. [D-3a]=500 μM for enhancing spatiotemporal resolution. […] FIG. 18H is a plot of time versus the fluorescence of pericellular nanofibrils on HeLa cells treated with D-3a. The initial cell number is 5,000 cells/well. All the confocal microscope images were taken after removing the medium with D-3a and then adding the live cell image solution (Invitrogen Life Technologies A14291DJ). [D3-a]=500 μM for FIGS. 18G-H.
(§4) To validate D-3a as an effective agent for the detection of phosphatase activity on a wide variety of cells, the cellular ectophosphatase activity of various cell lines, including PC-12, Capan-2, A375, Ect1/E6E7, and C3H10T1/2, was evaluated following 24 hour incubation of cells with 500 μM D-3a (FIG. 18A).

A375 = experiment: Ectophosphatase imaging of live cells, A375; assay type: cell-based, human; conditions: 500 μM, 24 hour incubation
Experimental: as §3, §4

Ect1/E6E7 = experiment: Ectophosphatase imaging of live cells, Ect1/E6E7; assay type: cell-based, human; conditions: 500 μM, 24 hour incubation
Experimental: as §3, §4

Capan-2 = experiment: Ectophosphatase imaging of live cells, Capan-2; assay type: cell-based, human; conditions: 500 μM, 24 hour incubation
Experimental: as §3, §4

HS-5 cells = experiment: Fluorescence imaging of HeLa/HS-5 co-culture, HS-5; assay type: cell-based; conditions: co-culture of HeLa and HS-5, 500 μM, 6 and 24 hours
From the text: as §1, §2

HeLa cells [2] = experiment: Ectophosphatase imaging of live cells, HeLa time course; assay type: cell-based, human
Experimental: as §3
To investigate the spatiotemporal resolution of D-3a fluorescence, HeLa cells were incubated with 500 μM D-3a for varying amounts of time (30 minutes, 1 hour, 3 hours, and 6 hours, respectively) and imaged by confocal microscopy (FIG. 18B). […] Quantification of ectophosphatase activity on the surface of HeLa cells treated with 500 μM of D-3a is shown in FIGS. 18G-18H as a function of cell number or time, respectively.

C3H10T1/2 = experiment: Ectophosphatase imaging of live cells, C3H10T1/2; assay type: cell-based, murine; conditions: 500 μM, 24 hour incubation
Experimental: as §3, §4

[3] = system: Alkaline-phosphatase (“ALP”); conditions: D-3a; ALP (2 U/ml) in FIG. 38B
From the text: […] Scale bar=100 nm.
Napthalene capped tripeptide precursor molecule D-2a and hydrogelator molecule D-2b, synthesized according to Yang et al. (Small 3:558-562 (2007), which is hereby incorporated by reference in its entirety), are comprised of the tripeptide D-Phe-D-Phe-D-Tyr (FIG. 1B). The D-Tyr of D-2a is phosphorylated (FIG. 1B).

HeLa cells [4] = experiment: LC-MS composition of pericellular hydrogel/nanofibrils and suspension medium of HeLa cells; assay type: in vitro ADME, human; conditions: HeLa cells incubated with precursor at 560 μM at 37° C. for 12 hours
HeLa cells [5] = experiment: Cell adhesion assay; assay type: cell-based, human; conditions: 560 μM, trypsinized HeLa cells, at 4 hours
Experimental: Cells in exponential growth phase were detached using 0.25% trypsin-EDTA. After neutralizing trypsin by addition of complete culture medium, the cells were collected by centrifuge (1000 rpm, 3 min). The cell pellet was suspended by addition of culture medium to a concentration of 4×10^5 cells/mL. 1 mL of the cell suspension was mixed with 1 mL of 2×D-2a or D-2b containing culture media. The resulting solutions were added into 96 well plate at 100 μL/well. After the desired time of incubation at 37° C., 5% CO2, the solution was gently removed, and then 100 μL of culture medium and 10 μL of 5 mg/mL MTT were added to each well. Following 4 hour incubation in the dark, 100 μL of 10% SDS with 0.01M HCl was added to each well to stop the reduction reaction and to dissolve the purple. After incubation of the cells at 37° C. for overnight, the viability was measured. Data represent the mean±standard deviation of three independent experiments.

[6] = system: secretory phosphatases present in HeLa cell conditioned medium; experiment: Hydrogelation in HeLa cell conditioned medium; assay type: biochemical, human; conditions: 560 μM, 48 hours
Experimental: 2×10^5 of cells in exponential growth phase were seeded in a 35 mm Petri dish with 1 mL complete culture medium. Following overnight incubation, 1 mL of new medium was replaced and incubated for 24 h at 5% CO2, 37° C. The medium was next removed and centrifuged at 10,000 rpm for 5 minutes. The suspension was placed into a 1.5 mL Eppendorf® tube and stored at −20° C. Stored conditioned medium was thawed and warmed to 37° C. in water bath immediately before use.
HeLa cell conditioned medium (“CM”) dephosphorylates D-2a to form D-2b nanofibrils.

HeLa cells [7] = experiment: Cell viability assay (MTT), HeLa; assay type: cell-based, human; conditions: 280 μM, direct addition
Experimental: Cells in exponential growth phase were seeded in a 96 well plate at a concentration of 2×10^4 cells/well. The cells were allowed to attach to the wells for 24 hours at 37° C., 5% CO2. The culture medium was removed and 100 μL culture medium containing compounds (immediately diluted from fresh prepared stock solution of 10 mM) at gradient concentrations (0 μM as the control) was placed into each well. After culturing at 37° C., 5% CO2 for 48 hours, each well was added by 10 μL of 5 mg/mL MTT (3-(4,5-dimethylthiazoL-2-yl)-2,5-diphenyltetrazolium bromide), and the plated cells were incubated in the dark for 4 hours. 100 μL 10% SDS with 0.01M HCl was added to each well to stop the reduction reaction and to dissolve the purple. After overnight incubation of the cells at 37° C., the OD at 595 nm of the solution was measured in a microplate reader. Data represent the mean±standard deviation of three independent experiments.

HeLa cells [8] = experiment: Pericellular hydrogelation on HeLa cells (optical images); assay type: cell-based, human; conditions: 560 μM, 2 hours at 37° C.
Experimental: An 11.2 mM (8.09 mg/mL) stock solution of D-2a was prepared in ddH2O. The pH was adjusted to 7.4 using 1N NaOH. 2×10^5 cells in exponential growth phase were seeded in 35 mm Petri dish with 1 mL complete culture medium. Following overnight incubation, the medium was replaced with 1 mL of medium containing D-2a (diluted from the stock solution immediately prior to use). Petri dishes were incubated at 37° C. for two hours. Next, dishes were removed from the incubator and titled on a bench to visualize the pericellular hydrogel. Prior to co-incubation with phosphatase inhibitors, cells were washed three times with medium containing Pierce phosphatase inhibitor cocktail (Thermo) (contains sodium floride, sodium orthovanadate, sodium pyrophosphate, and beta-glycerophosphate). Next, 1 mL of medium containing both the inhibitor cocktail and D-2a was applied to the cells.

O=C(CCNc1ccc([N+](=O)[O-])c2nonc12)NC(Cc1ccc2ccccc2c1)C(=O)N[C@H](Cc1ccccc1)C(=O)N[C@H](Cc1ccccc1)C(=O)N[C@H](Cc1ccc(OP(=O)(O)O)cc1)C(=O)O (stereo partly drawn) [D-3a, NBD-D-Nal-D-Phe-D-Phe-D-pTyr] ({NBD-βAla}-[ξ2Nal][dF][dF][d(pY)]-OH)
NBD fluorescence on cancer cells in co-culture (HeLa cells [1]): selective formation of bright yellow (NBD) fluorescence on the surface of the cancer cells
Cell surface exhibiting NBD fluorescence (PC-12 Adh): more than 50%
NBD fluorescence (A375): no fluorescence
NBD fluorescence (Ect1/E6E7): strong fluorescence in the cytosol
NBD fluorescence (Capan-2): weak
NBD fluorescence on stromal cells in co-culture (HS-5 cells): only yellow puncta are observed inside the HS-5 stromal cells
Cell surface fluorescence over time (HeLa cells [2]; 500 μM, 30 minutes, 1 hour, 3 hours, 6 hours): increased cell surface fluorescence with time
Fluorescence after re-incubation in fresh medium (HeLa cells [2]; 6 hour incubation with D-3a, then fresh medium for 24 hours): only nuclear dye fluorescence
NBD fluorescence (C3H10T1/2): sporadic fluorescence on cell surface
Hydrogel formation after phosphatase-catalyzed dephosphorylation [3]: self-assembles to form the fluorescent nanonets/hydrogel

O=C(Cc1ccc2ccccc2c1)N[C@@H](Cc1ccccc1)C(=O)N[C@@H](Cc1ccccc1)C(=O)N[C@@H](Cc1ccc(OP(=O)(O)O)cc1)C(=O)O [L-2a]
L-2b in suspension medium (HeLa cells [4]): 176.6 µM
L-3 in suspension medium (HeLa cells [4]): 270.4 µM

Nap-D-Phe-D-Phe-D-Tyr [D-2b]
Cells reattached to surface (HeLa cells [5]): > 80%
Hydrogel formation in HeLa cell conditioned medium [6]: fails to form a hydrogel
Growth inhibition of HeLa cells (HeLa cells [7]): hardly inhibits the growth
Pericellular hydrogel formation on HeLa cells (HeLa cells [8]): hardly any hydrogelation; also recorded: does not form pericellular hydrogels
